Series [1] in a line: Clearance value intravenously administered to rats with 5 mg/kg. Format: ADME, organism-based. Set-up: dose 5 mg/kg, route intravenous. The note with it: rat, in vivo, iv.
The target of series [2] is Growth hormone secretagogue receptor type 1 (Homo sapiens, UniProt Q92847). The series can be described thus: Inhibition of [125I]ghrelin binding to human recombinant ghrelin receptor membrane preparation.
A short description of series [3]: Half life value intravenously administered to rats with 5 mg/kg. Format: ADME, organism-based. Set-up: dose 5 mg/kg, route intravenous. The note with it: rat, in vivo, iv.
Series [4] in a line: Cmax value in rat after oral dose of 20 mg/k. In kind it is ADME, organism-based. Set-up: route oral. The note with it: in vivo, 20 mg/kg.
Series [5] in a line: Volume of distribution value intravenously administered to rats with 5 mg/kg. Set-up: dose 5 mg/kg, route intravenous. As to conditions: rat, in vivo, iv. Format: ADME, organism-based.
A short description of series [6]: Bioavailability value in rat after oral dose of 20 mg/k. Format: ADME, organism-based. The note with it: in vivo, 20 mg/kg, read-out: Bioavailabiility.

One may read the clearance as the rate of elimination divided by the concentration. Higher therefore signals efficient removal. In general, IC50 refers to the concentration that gives 50% inhibition. Broadly, the half-life is the time needed for the level to fall by half in the phase considered. The term Cmax denotes the maximum level reached in the sampled fluid or tissue. As usually defined, the Vd is a proportionality between amount in the body and measured concentration, not a real space. High values mean wide distribution into tissue, low ones little distribution into tissue.

Molecules are shown by their SMILES.

Chain of Growth hormone secretagogue receptor type 1 (Q92847 whole entry): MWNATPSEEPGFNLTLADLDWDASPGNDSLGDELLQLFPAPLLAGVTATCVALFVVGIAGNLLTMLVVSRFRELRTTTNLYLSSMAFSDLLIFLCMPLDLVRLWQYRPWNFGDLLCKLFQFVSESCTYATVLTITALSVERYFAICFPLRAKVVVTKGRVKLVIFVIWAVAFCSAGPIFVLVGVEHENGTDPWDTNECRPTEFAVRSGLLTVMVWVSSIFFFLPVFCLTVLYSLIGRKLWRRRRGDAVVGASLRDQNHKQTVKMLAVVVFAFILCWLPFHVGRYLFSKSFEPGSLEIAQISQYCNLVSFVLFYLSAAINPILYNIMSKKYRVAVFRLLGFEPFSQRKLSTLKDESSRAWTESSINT

Consider `CCN(CC)CCN1C(=O)[C@@](O)(c2ccc(Cl)cc2Cl)c2c1cc(C(N)=O)cc2C(F)(F)F`, for which the clearance in series [1] was 51 mL/min/kg. In addition, the 50% inhibitory concentration (IC50) in series [2] came to 0.02 nM. This compound showed a half-life in series [3] of 1.6 h. In series [4], this compound had a Cmax of 491 ng/mL. This compound registered a Vd in series [5] of 5.4 L/kg. Moreover, the bioavailability in series [6] was found to be 28%.

Take `CCN(CC)CCN1C(=O)[C@@](O)(c2cccc(Cl)c2)c2c1cc(C(N)=O)cc2C(F)(F)F`: the half-inhibitory concentration (IC50) in series [2] was found to be 15 nM.

Consider `CCN(CC)CCN1C(=O)[C@@](O)(c2cc(Cl)ccc2Cl)c2c1cc(C(N)=O)cc2C(F)(F)F`, for which the IC50 in series [2] amounted to 0.24 nM.

For `CCN(CC)CCN1C(=O)[C@@](O)(c2ccc(OC)cc2)c2c1cc(C(N)=O)cc2C(F)(F)F`, the IC50 in series [2] came out at 106 nM.

Take `CCN(CC)CCN1C(=O)C(O)(c2ccccc2)c2c1cc(C(N)=O)cc2C(F)(F)F` (configuration not stated): the IC50 in series [2] was found to be 116 nM.

Regarding `CCN(CC)CCN1C(=O)[C@@](O)(c2cccc(OC)c2)c2c1cc(C(N)=O)cc2C(F)(F)F`, the IC50 in series [2] amounted to 77 nM.

As to `CCN(CC)CCN1C(=O)[C@@](O)(c2c(Cl)cccc2Cl)c2c1cc(C(N)=O)cc2C(F)(F)F`, the IC50 in series [2] stood at 4.2 nM.

On to `CCN(CC)CCN1C(=O)[C@@](O)(c2ccccc2OC)c2c1cc(C(N)=O)cc2C(F)(F)F`, for which the IC50 in series [2] worked out at 160 nM.

Turning to `CCN(CC)CCN1C(=O)[C@@](O)(c2ccc(Cl)cc2)c2c1cc(C(N)=O)cc2C(F)(F)F`, the IC50 in series [2] was 83 nM.

`CCN(CC)CCN1C(=O)[C@@](O)(c2ccccc2Cl)c2c1cc(C(N)=O)cc2C(F)(F)F`: the IC50 in series [2] came to 2.1 nM.

On to `CCN(CC)CCN1C(=O)[C@@](O)(c2cccc(Cl)c2Cl)c2c1cc(C(N)=O)cc2C(F)(F)F`, for which the IC50 in series [2] stood at 1.6 nM.

With `CCN(CC)CCN1C(=O)C(O)(c2ccccc2Cl)c2c1cc(C(N)=O)cc2C(F)(F)F` (configuration not stated), the IC50 in series [2] came out at 4 nM.
